Assay results from article PMC5848165 (Toxins, 2018).
Residues, ends and D or L forms follow the SMILES beside them.

System: chimera #2, Nav1.7 (Nav1.5-DIV-S3-S4)
Assay: Whole-cell patch clamp, chimera #2 in HEK293 cells
Assay type: cell-based, human Nav1.7 / rat Nav1.5
Details: n = 5, −10 mV from −80 mV
Text: Many animal toxins alter activation or inactivation of sodium channels by binding to the S3–S4 regions of channels, which are probably the external linkers or voltage sensors of sodium channels. α-Scorpion toxins slow down fast-inactivation of sodium channels by binding to the extracellular linker loop of DIVS3-S4 (neurotoxin site 3). Meanwhile, β-scorpion toxins that interact with DIIS3-S4 linker enhance the activation of sodium channels by trapping DII voltage sensor in an activated state. As Nav1.5 channel is resistant to the inhibition of JZTX-34, we investigated the binding site of JZTX-34 to Nav1.7 by constructing chimeric channels between Nav1.5 and Nav1.7. […]
The HEK293T cells were maintained in standard culture conditions (5% CO2 and 37 °C). […] After culturing for 36–72 h, cells with obvious green fluorescence were selected for sodium currents recordings the internal solution for sodium currents recording that contained (in mM) 140 CsF, 5 NaCl, 10 HEPES, 3 Na2-ATP, and 10 EGTA. […]
Sodium currents were recorded from DRG, HEK293, and ND cells by the whole-cell patch-clamp technique at 25 °C. […] Experiments date were acquired from whole-cell Axon 700B patch clamp amplifier (Molecular Devices, Sunnyvale, CA, USA) and analyzed by the program Clampfit10.0 (Molecular Devices, Sunnyvale, CA, USA) and Sigmaplot. […]

CC(C)C[C@@H]1NC(=O)[C@H](Cc2c[nH]c3ccccc23)NC(=O)[C@H](CCC(=O)O)NC(=O)[C@H](CCCNC(=N)N)NC(=O)[C@@H](NC(=O)[C@H](C)N)CSSC[C@@H]2NC(=O)[C@@H]3CSSC[C@@H](C(=O)N[C@H](C(=O)N[C@@H](Cc4c[nH]c5ccccc45)C(=O)N[C@@H](CC(=O)O)C(=O)N[C@@H](Cc4c[nH]c5ccccc45)C(=O)N[C@H](C(=O)N[C@H](C(=O)O)C(C)C)[C@@H](C)O)C(C)C)NC(=O)[C@H](Cc4c[nH]cn4)NC(=O)[C@H](Cc4ccc(O)cc4)NC(=O)[C@@H]4CCCN4C(=O)[C@H](Cc4c[nH]c5ccccc45)NC(=O)[C@H](CCCCN)NC(=O)[C@H](CCCCN)NC(=O)[C@H](CCCNC(=N)N)NC(=O)[C@H](CSSC[C@H](NC(=O)CNC(=O)CNC1=O)C(=O)N[C@@H](CO)C(=O)N[C@@H](CCCCN)C(=O)N[C@@H](CC(=O)O)C(=O)N[C@@H](C)C(=O)N[C@@H](CC(=O)O)C(=O)N3)NC(=O)[C@H](CCC(=O)O)NC(=O)[C@H](CC(C)C)NC(=O)[C@H](Cc1c[nH]cn1)NC(=O)[C@H](C)NC2=O [JZTX-34, Jingzhaotoxin-34] (HELM PEPTIDE1{A.C.R.E.W.L.G.G.C.S.K.D.A.D.C.C.A.H.L.E.C.R.K.K.W.P.Y.H.C.V.W.D.W.T.V}$PEPTIDE1,PEPTIDE1,2:R3-16:R3|PEPTIDE1,PEPTIDE1,9:R3-21:R3|PEPTIDE1,PEPTIDE1,15:R3-29:R3$$$V2.0; N-terminus and C-terminus assumed)
inhibition of chimera #2 currents (1 µM): 43.6 ± 4.5% | inhibition of chimera #2 currents (10 µM): 76.3 ± 3.6%
